Test results as given in ChEMBL document CHEMBL3227927, “Synthesis and hypoglycemic activity of pyridyl alcohols” (J Med Chem, 1979).
The source made the active and inactive calls. The calls are words filed in the database; no cut-off is given here.

What was measured:
Rattus norvegicus [1] = assay: Hypoglycemic activity in 48 hrs fasted Charles River rat at 150 mg/kg, po measured at 1 hr relative to control; assay type: functional
Rattus norvegicus [2] = assay: Hypoglycemic activity in 48 hrs fasted Charles River rat at 150 mg/kg, po measured at 2 hrs relative to control; assay type: functional
Rattus norvegicus [3] = assay: Hypoglycemic activity in 48 hrs fasted Charles River rat at 150 mg/kg, po measured at 4 hrs relative to control; assay type: functional
Rattus norvegicus [4] = species on record: Rattus norvegicus; assay: Toxicity in rat assessed as increase in hepatic triglyceride level measured up to 24 hrs; assay type: organism-based; settings: in vivo
Rattus norvegicus [5] = species on record: Rattus norvegicus; assay: Toxicity in rat assessed as mortality measured up to 24 hrs; assay type: organism-based; settings: in vivo
Rattus norvegicus [6] = assay: Hypoglycemic activity in 48 hrs fasted Charles River rat at 150 mg/kg, po measured at 5 hrs relative to control; assay type: functional
Rattus norvegicus [7] = assay: Hypoglycemic activity in 48 hrs fasted Charles River rat at 300 mg/kg, ip measured at 2 hrs relative to control; assay type: functional; settings: route intraperitoneal
Rattus norvegicus [8] = assay: Hypoglycemic activity in 48 hrs fasted Charles River rat at 300 mg/kg, ip measured at 4 hrs relative to control; assay type: functional; settings: route intraperitoneal
Rattus norvegicus [9] = assay: Hypoglycemic activity in 48 hrs fasted Charles River rat at 300 mg/kg, ip measured at 1 hr relative to control; assay type: functional; settings: route intraperitoneal
Rattus norvegicus [10] = assay: Hypoglycemic activity in 48 hrs fasted Charles River rat at 200 mg/kg, po measured at 1 hr relative to control; assay type: functional
Rattus norvegicus [11] = assay: Hypoglycemic activity in 48 hrs fasted Charles River rat at 200 mg/kg, po measured at 2 hrs relative to control; assay type: functional
Rattus norvegicus [12] = assay: Hypoglycemic activity in 48 hrs fasted Charles River rat at 200 mg/kg, po measured at 4 hrs relative to control; assay type: functional
Rattus norvegicus [13] = assay: Hypoglycemic activity in 48 hrs fasted Charles River rat at 50 mg/kg measured at 7 hrs relative to control; assay type: functional, organism-based; parameters: dose 50 mg/kg
Rattus norvegicus [14] = assay: Toxicity in rat assessed as increase in hepatic triglyceride level at 50 mg/kg measured after 4 hrs relative to control; assay type: organism-based; parameters: dose 50 mg/kg; settings: in vivo
Rattus norvegicus [15] = species on record: Rattus norvegicus; assay: Toxicity in rat assessed as mortality measured at 6 hrs; assay type: organism-based; settings: in vivo
Rattus norvegicus [16] = assay: Hypoglycemic activity in 48 hrs fasted Charles River rat at 300 mg/kg, po measured at 1 hr relative to control; assay type: functional
Rattus norvegicus [17] = assay: Hypoglycemic activity in 48 hrs fasted Charles River rat at 300 mg/kg, po measured at 4 hrs relative to control; assay type: functional
Rattus norvegicus [18] = assay: Hypoglycemic activity in 48 hrs fasted Charles River rat at 300 mg/kg, po measured at 2 hrs relative to control; assay type: functional
Rattus norvegicus [19] = assay: Hypoglycemic activity in 48 hrs fasted Charles River rat at 260 mg/kg, po measured at 2 hrs relative to control; assay type: functional
Rattus norvegicus [20] = assay: Hypoglycemic activity in 48 hrs fasted Charles River rat at 260 mg/kg, po measured at 4 hrs relative to control; assay type: functional
Rattus norvegicus [21] = assay: Hypoglycemic activity in 48 hrs fasted Charles River rat at 260 mg/kg, po measured at 1 hr relative to control; assay type: functional
Rattus norvegicus [22] = assay: Hypoglycemic activity in 48 hrs fasted Charles River rat at 150 mg/kg, po measured at 7 hrs relative to control; assay type: functional, organism-based; parameters: dose 150 mg/kg

SMILES	Activity (Rattus norvegicus [1])	Activity (Rattus norvegicus [2])	Activity (Rattus norvegicus [3])	also measured
CC1CCCNC1CCCO.Cl (centres undefined)	-15%	-3%	-6%	–
Cc1cccnc1CO.Cl	-9%	0%	3%	–
CC(=O)OCCCc1ncccc1C	21%	-34%	-73%	Activity (Rattus norvegicus [4]): Toxic; Activity (Rattus norvegicus [5]): Toxic
CC(=O)Cc1ncccc1C	-12%	-14%	-8%	–
Cc1cnc(CO)c(C)c1.Cl	-12%	-17%	-1%	Activity (Rattus norvegicus [6]): -9%
OCCCc1ccccn1	–	9%	46%	Activity (Rattus norvegicus [6]): 42%
Cc1ncccc1CCCO.[O-][Cl+3]([O-])([O-])O	-4%	-8%	-1%	–
COCCCc1ncccc1C	-15%	-14%	-29%	Activity (Rattus norvegicus [4]): Toxic; Activity (Rattus norvegicus [5]): Toxic; Activity (Rattus norvegicus [6]): -52%
Cc1cccnc1CCO	-8%	-14%	8%	–
Cc1cccnc1C(=O)O	–	–	–	Activity (Rattus norvegicus [7]): -9%; Activity (Rattus norvegicus [8]): -15%; Activity (Rattus norvegicus [9]): -8%
Cc1ncccc1CO.Cl	-3%	1%	-11%	–
Cc1cnc(CCCO)c(C)c1.Cl	27%	-39%	-72%	Activity (Rattus norvegicus [4]): Toxic; Activity (Rattus norvegicus [5]): Toxic
CCCCNC(=O)NS(=O)(=O)c1ccc(C)cc1 [TOLBUTAMIDE]	–	–	–	Activity (Rattus norvegicus [10]): 28%; Activity (Rattus norvegicus [11]): 47%; Activity (Rattus norvegicus [12]): 48%
Cc1cccnc1/C=C/C(=O)O	-5%	4%	23%	–
Cc1ccc[n+](C)c1CCCO.[I-]	-1%	3%	-14%	–
Cc1cccnc1CC(O)C(Cl)(Cl)Cl.Cl (centres undefined)	-16%	-29%	-16%	–
OCc1cccnc1 [NICOTINYL ALCOHOL]	11%	-3%	-19%	–

SMILES	Activity (Rattus norvegicus [1])	Activity (Rattus norvegicus [2])	Activity (Rattus norvegicus [3])	also measured
C[n+]1cccc(CCCO)c1.[I-]	-13%	-14%	-12%	–
Cc1cccnc1CCCS	-9%	-14%	-18%	–
OCc1ccccn1 [PICONOL]	4%	6%	2%	–
Cc1cc2ccccc2nc1CCCO.Cl	16%	-9%	-10%	–
Cc1ccc[n+]([O-])c1CCCO	-6%	-3%	-8%	–
Cc1cccnc1C.Cl	0%	-5%	8%	–
Cc1cccnc1CC(O)C(=O)O.Cl (centres undefined)	-9%	-5%	-1%	–
Cc1cccnc1CCCO	-22%	-18%	-68%	Activity (Rattus norvegicus [5]): Toxic; Activity (Rattus norvegicus [13]): Active; fold change (FC) (Rattus norvegicus [14]): 10; Activity (Rattus norvegicus [6]): -87%
Cc1cccnc1CCC(=O)O	5%	-28%	-85%	Activity (Rattus norvegicus [4]): Toxic; Activity (Rattus norvegicus [5]): Toxic; Activity (Rattus norvegicus [15]): Toxic; Activity (Rattus norvegicus [6]): -90%
OCc1ccncc1 [PYRIDINE 4-METHANOL]	4%	0%	-4%	–
OC(Cc1ccccn1)C(Cl)(Cl)Cl (centres undefined)	–	–	–	Activity (Rattus norvegicus [16]): 24%; Activity (Rattus norvegicus [17]): 101%; Activity (Rattus norvegicus [18]): 40%
Cc1ccc(CCCO)nc1.[O-][Cl+3]([O-])([O-])O	–	–	–	Activity (Rattus norvegicus [19]): -1%; Activity (Rattus norvegicus [20]): 18%; Activity (Rattus norvegicus [21]): 0%
OCCCc1ccncc1	17%	14%	33%	–
Cc1cccnc1CCCCO	-9%	-9%	0%	–
Cc1cccnc1CC(C)O.Cl (centres undefined)	3%	-3%	-12%	–
OCCCc1cccnc1	3%	-12%	-24%	Activity (Rattus norvegicus [22]): Active
Cc1cccnc1CCC(C)(C)O.[O-][Cl+3]([O-])([O-])O	6%	-7%	-10%	–
